Earlier results as cited in patent US11007501B2, “Reduced permeability microcapsules” (Trucapsol LLC, priority 2018, dated 2021).

Octanol/water Partition Coefficient (logP)	Substance
1.3	Nonalactone
2.11	Violiff
